Among the data in PubChem BioAssay (NCI) are TGI values, retold here.

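Method: 48-hour compound exposure of cells in 96-well plates, five concentrations, linear interpolation of endpoints. TGI: total growth inhibition.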

Some test systems named below: HOP-92 NSCLC; HL-60(TB) leukemia; UACC-62 melanoma; SK-MEL-5 melanoma; SF-539 CNS; U251 CNS; HOP-62 NSCLC; NCI-H23 lung; HT29 colon; NCI-H522 lung; HCT-15 colon; K-562 leukemia; LOX IMVI melanoma; OVCAR-3 ovarian; MDA-N; PC-3 prostate; SNB-19 CNS; SNB-75 CNS; UACC-257 melanoma; SR leukemia.
Experiment in all cases: inhibition of tumour cell growth, NCI panel, 48 h

As for `C=C1C(=O)CC2C1CC(=O)/C(C)=C/CCC(C)(O)C2O` (stereo not given), the TGI with HOP-92 NSCLC was 15.8 µM; in the experiment with HL-60(TB) leukemia, 10.1 µM; with UACC-62 melanoma it was 14.8 µM; in the experiment on SK-MEL-5 melanoma, 17.6 µM; in the experiment on SF-539 CNS, over 24.4 µM; in the experiment on U251 CNS, 40.6 µM. Besides, the TGI in the experiment on HOP-62 NSCLC is 43.7 µM; in the experiment with NCI-H23 lung it was 20.6 µM; in the experiment on HT29 colon it was 26.9 µM; in the experiment with NCI-H522 lung, 3.04 µM; in the experiment on HCT-15 colon, 11.5 µM; with K-562 leukemia it was 15.7 µM. Further, the TGI with LOX IMVI melanoma is 11.9 µM; in the experiment with OVCAR-3 ovarian, 17 µM; with MDA-N it was 2.86 µM; with PC-3 prostate, 23.3 µM; in the experiment on SNB-19 CNS, over 67.1 µM; with SNB-75 CNS, 28 µM. In addition, the TGI with UACC-257 melanoma is 12.6 µM; in the experiment with SR leukemia, over 37.6 µM.

For the molecule `COC(=O)/C=C\C(C#N)(C#N)N=Cc1ccc(C)cc1`, the TGI is 3.6 µM with HOP-92 NSCLC; 8.14 µM with HL-60(TB) leukemia; 28.4 µM with UACC-62 melanoma; 26.9 µM with SK-MEL-5 melanoma; 10.9 µM in the experiment on SF-539 CNS; 27.7 µM in the experiment with U251 CNS. The TGI in the experiment on HOP-62 NSCLC came to 34.2 µM; in the experiment on NCI-H23 lung, 15.1 µM; with HT29 colon, 18.7 µM; with NCI-H522 lung, 1.64 µM; in the experiment with HCT-15 colon, 6.87 µM; with K-562 leukemia, 16.7 µM. Further, the TGI with LOX IMVI melanoma came to 5.8 µM; in the experiment on OVCAR-3 ovarian it was 5.82 µM; with MDA-N, 14 µM; in the experiment on PC-3 prostate, 15.2 µM; in the experiment with SNB-19 CNS it was 43.1 µM; in the experiment with SNB-75 CNS, 31 µM. Further, the TGI with UACC-257 melanoma turned out to be 12.6 µM; with SR leukemia, 3.8 µM.

In the case of `NCCCN1c2ccccc2Sc2ccc(Cl)cc21`, the TGI in the experiment with HOP-92 NSCLC was over 10 µM; in the experiment on HL-60(TB) leukemia, over 10 µM; with UACC-62 melanoma, over 10 µM; in the experiment on SK-MEL-5 melanoma, over 5.52 µM; in the experiment with SF-539 CNS, over 10 µM; in the experiment with U251 CNS, over 10 µM. The TGI was over 10 µM in the experiment on HOP-62 NSCLC; over 10 µM with NCI-H23 lung; over 6.59 µM with HT29 colon; over 5.15 µM with NCI-H522 lung; over 10 µM in the experiment on HCT-15 colon; over 8.41 µM in the experiment with K-562 leukemia. For the same molecule, the TGI with LOX IMVI melanoma is 7.31 µM; in the experiment with OVCAR-3 ovarian, over 10 µM; in the experiment with MDA-N it was over 5.98 µM; with PC-3 prostate, over 10 µM; in the experiment on SNB-19 CNS, over 10 µM; in the experiment with SNB-75 CNS it was over 10 µM. The TGI is over 10 µM in the experiment on UACC-257 melanoma and over 8.89 µM in the experiment with SR leukemia.

Turning to `Clc1ccc(-c2nnc3sc4nc5ccccc5c-4nn23)c(Cl)c1`, the TGI in the experiment on HOP-92 NSCLC was 68.8 µM; in the experiment on HL-60(TB) leukemia, over 100 µM; in the experiment on UACC-62 melanoma it was over 100 µM; in the experiment with SK-MEL-5 melanoma, over 100 µM; with SF-539 CNS, over 100 µM; in the experiment with U251 CNS, over 100 µM. Also, the TGI with HOP-62 NSCLC, in the experiment on NCI-H23 lung, in the experiment on HT29 colon, in the experiment with NCI-H522 lung, with HCT-15 colon and in the experiment with K-562 leukemia was over 100 µM in each case. Also, the TGI with LOX IMVI melanoma is over 100 µM; in the experiment on OVCAR-3 ovarian, over 100 µM; in the experiment on MDA-N it was 82.6 µM; with PC-3 prostate it was over 100 µM; in the experiment on SNB-19 CNS it was over 100 µM; in the experiment on SNB-75 CNS, over 100 µM. For the same molecule, the TGI with UACC-257 melanoma and in the experiment on SR leukemia was over 100 µM in each case.

In the case of `COc1ccc(N2C(=O)CC(=O)N(NC(=O)C(C)Oc3ccccc3C)C2=S)cc1` (stereo not given), the TGI with HOP-92 NSCLC, in the experiment with HL-60(TB) leukemia, in the experiment with UACC-62 melanoma, with SK-MEL-5 melanoma, with SF-539 CNS and in the experiment with U251 CNS was over 100 µM in each case. Further, the TGI in the experiment with HOP-62 NSCLC, in the experiment with NCI-H23 lung, in the experiment on HT29 colon, in the experiment on NCI-H522 lung, in the experiment on HCT-15 colon and in the experiment on K-562 leukemia was over 100 µM throughout. The TGI with LOX IMVI melanoma, with OVCAR-3 ovarian, in the experiment on MDA-N, with PC-3 prostate, in the experiment on SNB-19 CNS and with SNB-75 CNS was over 100 µM throughout. Also, the TGI in the experiment with UACC-257 melanoma and in the experiment on SR leukemia was over 100 µM in each case.

In the case of `COC(=O)C(Cc1ccc2c(c1)CCC2)Cc1ccc2c(c1)CCC2`, the TGI is over 100 µM with HOP-92 NSCLC; 88.8 µM in the experiment with HL-60(TB) leukemia; over 100 µM in the experiment on UACC-62 melanoma; over 100 µM in the experiment on SK-MEL-5 melanoma; over 100 µM in the experiment with SF-539 CNS; over 100 µM in the experiment with U251 CNS. For the same molecule, the TGI with HOP-62 NSCLC, with NCI-H23 lung, with HT29 colon, with NCI-H522 lung, with HCT-15 colon and with K-562 leukemia was over 100 µM in each case. The TGI in the experiment on LOX IMVI melanoma is 60.4 µM; in the experiment on OVCAR-3 ovarian, over 100 µM; in the experiment with MDA-N it was over 100 µM; with PC-3 prostate, over 100 µM; in the experiment with SNB-19 CNS, over 100 µM; in the experiment on SNB-75 CNS it was over 100 µM. Besides, the TGI with UACC-257 melanoma and in the experiment with SR leukemia was over 100 µM each time.

Turning to `Cc1nn(-c2ccccc2)c2c1C(c1cc3ccccc3nc1Cl)NC(=O)N2` (stereo not given), the TGI in the experiment with HOP-92 NSCLC amounted to 32.1 µM; with HL-60(TB) leukemia it was 52.6 µM; in the experiment with UACC-62 melanoma, 42.5 µM; in the experiment with SK-MEL-5 melanoma it was 31.3 µM; in the experiment on SF-539 CNS, 45.9 µM; in the experiment with U251 CNS, 38.2 µM. Moreover, the TGI is 54.4 µM in the experiment with HOP-62 NSCLC; 37.6 µM in the experiment on NCI-H23 lung; 35.4 µM in the experiment with HT29 colon; 35.4 µM with NCI-H522 lung; 48.1 µM with HCT-15 colon; over 100 µM in the experiment on K-562 leukemia. For the same molecule, the TGI in the experiment with LOX IMVI melanoma is 44.8 µM; in the experiment on OVCAR-3 ovarian it was over 100 µM; with MDA-N, 37.2 µM; in the experiment on PC-3 prostate, 43.7 µM; in the experiment with SNB-19 CNS, 48.1 µM; with SNB-75 CNS it was 50.2 µM. The TGI is 85.9 µM in the experiment on UACC-257 melanoma and over 100 µM in the experiment with SR leukemia.
